Data set [1] in a line: Effects of formulation on antitumor efficacy. In kind it is in vivo.
Data set [2] deals with human ovarian carcinoma xenograft A2780. The data set can be described thus: Antitumor activity by parenteral administration to rats, A2780 xenograft. The data set is classed as in vivo, nude rats. The protocol:
The required number of animals needed to detect a meaningful response were pooled at the start of the experiment and each was given a subcutaneous implant of a tumor fragment (≈50 mg) with a 13-gauge trocar. For treatment of early-stage tumors, the animals were again pooled before distribution to the various treatment and control groups. For treatment of animals with advanced-stage disease, tumors were allowed to grow to the pre-determined size window (tumors outside the range were excluded) and animals were evenly distributed to various treatment and control groups. Treatment of each animal was based on individual body weight. Treated animals were checked daily for treatment related toxicity/mortality. Each group of animals was weighed before the initiation of treatment (Wt1) and then again following the last treatment dose (Wt2). The difference in body weight (Wt2−Wt1) provides a measure of treatment-related toxicity.
Tumor response was determined by measurement of tumors with a caliper twice a week, until the tumors reach a predetermined “target” size of 1 gm. Tumor weights (mg) were estimated from the formula: Tumor weight=(length×width^2)÷2
Antitumor activity was evaluated at the maximum tolerated dose (MTD) which is defined as the dose level immediately […] which excessive toxicity (i.e. more than one death) occurred. The MTD was frequently equivalent to OD. When death occurred, the day of death was recorded. Treated mice dying prior to having their tumors reach target size were considered to have died from drug toxicity. No control mice died bearing tumors less than target size. Treatment groups with more than one death caused by drug toxicity were considered to have had excessively toxic treatments and their data were not included in the evaluation of a compound's antitumor efficacy.
Tumor response end-point was expressed in terms of tumor growth delay (T−C value), defined as the difference in time (days) required for the treated tumors (T) to reach a predetermined target size compared to those of the control group (C).
To estimate tumor cell kill, the tumor volume doubling time was first calculated with the formula: TVDT=Median time (days) for control tumors to reach target size−Median time (days) for control tumors to reach half the target size and Log cell kill=T−C÷(3.32×TVDT)
Compound A was evaluated versus the human ovarian carcinoma xenograft A2780 grown in nude rats. […] In comparison, Compound B produced 3.3 LCK at its MTD (2.4 mg/kg/inj, IV, every 8 days×2).

Data set [3] addresses T1, HERG (IKr) potassium channel (Homo sapiens, UniProt Q12809).
T1 construct: expressed in transfected cells; host or cells: HEK293
The data set can be described thus: HERG (IKr current) assay. The data set is classed as cell-based. The following applies: 30 μM, HEK293 cells transfected with HERG. The protocol:
Human embryonic kidney (HEK293) cells stably transfected with the human ether-a-go-go related gene (HERG) cDNA were utilized in the HERG assay. Rabbit Purkinje fibres were used for the Purkinje-fibre action potential assay^7.
In a non-GLP study^7, Compound A was evaluated for effects on potassium channel current at concentrations of 10 and 30 μM. The human ether-a-go-go related gene (HERG) encodes the rapidly activating delayed-rectifier potassium channel (IKr) in heart. […] Based on the findings, it is unlikely that Compound A would cause IKr-mediated increases in the QT interval at anticipated therapeutic plasma concentrations.

Data set [4] can be described thus: Stability in dog EDTA plasma and whole blood. The data set is classed as in vitro ADME. As to the method: Plasma samples from exploratory pharmacokinetic studies were analyzed for Compound A concentrations using an LC/MS/MS assay with a standard curve range of 3.9 to 2000 ng/mL. In pharmacodynamic studies, Compound A concentrations were determined using an LC/MS/MS assay with a standard curve range of 10-40000 nM (5.23-20920 ng/mL) in mouse plasma. For toxicology studies, validated LC/MS/MS assays were used to determine the concentrations of Compound A in rat and dog plasma. Analytical data management for the validated assays was carried out using Watson®. The standard curve range for the validated assay in both matrices was 2 to 500 ng/mL of Compound A. The coefficient of variation for the inter- and intra-assay precision in rat and dog plasma was within 9% and the accuracy was greater than 92%. […] Compound A was stable for at least 4 months at !20EC and through at least 3 freeze-thaw cycles in rat and dog EDTA plasma. In addition, Compound A was stable in fresh rat and dog EDTA whole blood for at least 1 h at 4EC.

Data set [5] relates to Pat-26 human pancreatic carcinoma. The following applies: mouse, in vivo.
A short description of data set [6]: in vivo. The conditions noted are these: Balb/c nu/nu, mouse, po.
A short description of data set [7]: in vivo. The following applies: male, Sprague-Dawley, rat, plasma, 2 mg/kg, rats, IA 2 mg/kg.
From the text: A total of eight rats were divided into four groups (three IA groups and one oral group), with two rats in each group. […] The vehicle used for the oral administration was propylene glycol:ethanol:phophate buffer, 1 M, pH 8 (58:12:30).
The nature of data set [8]: Liver S9 incubation, dog. The following applies: dog liver S9, 20 μM.
Data set [9] in a line: Microsomal incubation, rat. The conditions noted are these: rat liver microsomes + NADPH, 20 μM. On the technique in general: Liver microsomes are a subcellular fraction often used to study metabolism.
A short description of data set [10]: Microsomal incubation, human. The conditions noted are these: human liver microsomes + NADPH, 20 μM.

T1 sequence (Q12809 whole entry): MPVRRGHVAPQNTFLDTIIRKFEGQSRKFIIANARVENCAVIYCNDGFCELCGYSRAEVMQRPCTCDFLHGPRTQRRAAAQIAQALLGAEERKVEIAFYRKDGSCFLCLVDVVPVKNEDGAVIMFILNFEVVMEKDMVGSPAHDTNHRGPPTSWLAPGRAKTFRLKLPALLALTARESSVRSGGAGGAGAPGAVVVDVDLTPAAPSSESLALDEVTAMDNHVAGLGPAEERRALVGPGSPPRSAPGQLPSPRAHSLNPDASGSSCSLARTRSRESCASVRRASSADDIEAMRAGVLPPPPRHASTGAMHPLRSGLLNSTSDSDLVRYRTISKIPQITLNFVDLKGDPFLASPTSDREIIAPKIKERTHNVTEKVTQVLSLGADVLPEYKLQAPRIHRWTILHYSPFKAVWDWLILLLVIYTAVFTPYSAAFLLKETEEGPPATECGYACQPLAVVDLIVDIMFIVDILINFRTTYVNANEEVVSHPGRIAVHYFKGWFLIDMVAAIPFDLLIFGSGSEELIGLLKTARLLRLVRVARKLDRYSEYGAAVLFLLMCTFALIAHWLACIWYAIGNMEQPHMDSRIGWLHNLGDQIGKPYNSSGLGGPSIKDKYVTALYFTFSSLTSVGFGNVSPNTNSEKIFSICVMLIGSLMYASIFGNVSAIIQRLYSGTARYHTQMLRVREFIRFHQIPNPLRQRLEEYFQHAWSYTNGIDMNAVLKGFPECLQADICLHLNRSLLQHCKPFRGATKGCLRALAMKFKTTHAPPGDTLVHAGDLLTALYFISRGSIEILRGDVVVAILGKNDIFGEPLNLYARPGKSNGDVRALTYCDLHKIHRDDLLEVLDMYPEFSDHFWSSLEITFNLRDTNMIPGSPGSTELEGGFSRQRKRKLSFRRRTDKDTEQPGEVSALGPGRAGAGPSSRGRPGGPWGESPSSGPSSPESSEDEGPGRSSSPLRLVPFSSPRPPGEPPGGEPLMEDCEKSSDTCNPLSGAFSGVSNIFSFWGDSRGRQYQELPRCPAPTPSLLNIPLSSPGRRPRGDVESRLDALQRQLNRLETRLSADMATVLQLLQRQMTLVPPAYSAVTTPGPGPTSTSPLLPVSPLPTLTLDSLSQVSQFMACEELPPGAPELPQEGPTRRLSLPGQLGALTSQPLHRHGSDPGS

As a reminder, the AUC is concentration integrated over time. A higher AUC goes with high exposure. On to `C/C(=C\c1csc(CN)n1)[C@@H]1C[C@@H]2O[C@]2(C)CCC[C@H](C)[C@H](O)[C@@H](C)C(=O)C(C)(C)[C@@H](O)CC(=O)O1` (relative stereo) [Compound A, [1S-[1R*,3R*(E),7R*,10S*,11R*,12R*,16S*]]-3-[2-[2-(aminomethyl)-4-thiazolyl]-1-methylethenyl]-7,11-dihydroxy-8,8,10,12,16-pentamethyl-4,17-dioxabicyclo[14.1.0]heptadecane-5,9-dione], for which the LCK in data set [1] (formulated in cremophor/ethanol/water (10:10:80, v/v/v)) is 3.3; in data set [1] (formulated in sodium acetate buffer (30 mM, pH 5.0)), 3.4; in data set [2] (A2780 in nude rats, IV, every 8 days×2, at MTD) it was 0.7. Moreover, the MTD stood at 3 mg/kg/inj in [2] (nude rats bearing A2780, IV, every 8 days×2); 10 mg/kg/inj in data set [5]; 90 mg/kg in [6]. In data set [3], the “maximum inhibition of IKr current” value turned out to be 13.5%. Moreover, the “stable through freeze-thaw cycles” value in data set [4] (dog EDTA plasma) was “at least 3 freeze-thaw cycles”. In addition, the “stable in plasma prior to processing” value in data set [4] (dog EDTA plasma, 4EC) was “at least 4 h”. The “stable in frozen plasma” value in [4] (dog EDTA plasma, !20EC) is reported as “at least 4 months”. Further, in [4] (dog EDTA whole blood, 4EC), the “stable in fresh whole blood” value was “at least 1 h”. In addition, the “stable in an autosampler after processing” value in data set [4] (dog plasma samples, 4EC) was “at least 5 days”. In addition, in data set [5] (iv), the “LCK (gross log cell kill)” value is reported as 1.2. The AUC in data set [7] (mean AUC, vehicle 1 ethanol:water (10:90)) is 133 ng·h/mL; in data set [7] (mean AUC, vehicle 2 cremophor:ethanol:water (10:10:80)), 708 ng·h/mL; in data set [7] (pH 7.4, mean AUC, vehicle 3 propylene glycol:ethanol:phosphate buffer pH 7.4 (40:5:55)), 210 ng·h/mL. Besides, the “rate of oxidative metabolism” value in data set [8] is recorded as 0.03; in [9], 0.05 mmol/min/mg protein; in data set [10], 0.21 mmol/min/mg protein.

The values are drawn from patent US6936628B2, “Oral administration of epothilones” (Bristol-Myers Squibb Company, priority 2002, dated 2005).
